The results in this text go back to patent publication US9561228B2 (Celgene Avilomics Research, Inc., priority 2013, dated 2017).

One assay concerns the target T1, MEK1 activated ERK1 (Homo sapiens, UniProt P27361).
T1 construct: purchased Millipore (Billerica, Mass.) 14-439-K
Nature of the assay: Omnia continuous-read kinase assay for potency against MEK1 activated ERK1. The following applies: MEK1 activated ERK1, ATP at KM; read-out: ERK1 Omnia WT ATP KM IC50. The assay is classed as biochemical. The method in brief: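 Apparent IC50 came from initial reaction slopes (RFU vs time) plotted against log inhibitor with a variable-slope fit. Reactions were started with ERK1 (4 nM final) added to 50 μM ATP, roughly at its appKM, and 10 μM Sox-conjugated ST17 peptide in 20 mM Tris pH 7.5, 5 mM MgCl2. Fluorescence was monitored every 71 seconds.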

In assay [1] the test system is ERK1/2 phosphorylation of p90RSK in HT29 cells. Nature of the assay: pRSK MSD Assay in HT29 cells. To be noted: Homo sapiens, HT-29, read-out: ERK1/ERK2 PRSK MSD HT29 EC50. Type of assay: cell-based. The method in brief: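 Serum-starved HT29 cells (0.1% FBS overnight) treated with test compound for 120 min at 37° C, then lysed with protease and phosphatase inhibitors. Phospho-p90RSK quantified by MSD sandwich immunoassay: RSK capture antibody, phospho-RSK detection antibody plus Sulfo-tagged antibody, electrochemiluminescence read.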

For assay [2], the system named is HT-29 cells (colorectal adenocarcinoma). Nature of the assay: Inhibition of cancer cell proliferation, HT-29 (CellTiterGlo, 72 hours). Type of assay: cell-based. The following applies: Homo sapiens. The method in brief: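 HT-29 cells seeded at 3000/well, then treated with 3-fold serial dilutions from a 5,000 nM two-fold solution in serum-free RPMI1640, untreated wells as control, for 72 h at 37° C. CellTiterGlo luminescence converted to cell number via a standard curve; GI50 from percent inhibition versus untreated growth.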
For orientation: In ATP-based viability assays light output follows the ATP content of the culture.

Assay [3] concerns A375 cells (malignant melanoma). Nature of the assay: Inhibition of cancer cell proliferation, A375 (CellTiterGlo, 72 hours). The assay is classed as cell-based. The following applies: Homo sapiens, A-375. On the procedure: Measurement of Inhibition of Cancer Cell Proliferation (A375/Malignant Melanoma)
The following protocol used an A375 cell line, which cell line is a model for malignant melanoma. A375 cells were split and 3000 cells in […] of growth medium were added per well of a flat-bottom 96-well plate. A two-fold test compound solution in serum-free DMEM was made, starting at 5,000 nM. Then, 3-fold serial dilutions were made across the plate from well 1 to well 11. Well 12, the last well in a row on the plate, was left as untreated control. 100 μl compound solutions were then transferred to the wells, so the total volume of media was 200 μl per well. Plates were returned to a 37° C. incubator, and the cells were cultured for 72 hours. To measure cell proliferation after 72 hours, media was discarded from the plates, 50 μl/well of fresh medium was added, and 50 μl CellTiterGlo solution was added (Promega Cat#G7573). The plate was covered with a dark lid and incubated for 10 min. A white sealing tape was applied to the bottom of the plate, and the plate was read in a luminescence plate reader. […] 50 μl CellTiterGlo was added per well, and the plate was read in a luminescence plate reader after 10 min. The reading was plotted vs. cell number to generate a standard curve and the equation of the curve fit. The compound-treated sample luminescence readings were converted to cell numbers using the curve-fit equation. The percent of inhibition, using untreated control as 100% growth, was then calculated. GI50 was then calculated by GraphPad Prism.

T1 sequence (P27361 whole entry): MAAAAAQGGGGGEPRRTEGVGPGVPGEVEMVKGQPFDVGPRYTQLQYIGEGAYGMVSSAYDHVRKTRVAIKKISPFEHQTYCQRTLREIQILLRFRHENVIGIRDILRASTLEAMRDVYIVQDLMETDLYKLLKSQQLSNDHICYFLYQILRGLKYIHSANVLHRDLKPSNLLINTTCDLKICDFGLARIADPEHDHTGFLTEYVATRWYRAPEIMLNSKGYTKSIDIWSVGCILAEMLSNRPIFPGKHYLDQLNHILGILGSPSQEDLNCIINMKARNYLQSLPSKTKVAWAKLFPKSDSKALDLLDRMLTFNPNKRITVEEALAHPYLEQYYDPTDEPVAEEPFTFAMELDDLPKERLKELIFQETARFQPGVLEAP

For `C=CC(=O)Nc1cc(C)ccc1Nc1nc(Nc2ccnc(OC)c2)ncc1Cl` [Compound I-235, N-(2-((5-chloro-2-((2-methoxypyridin-4-yl)amino)pyrimidin-4-yl)amino)-5-methylphenyl)acrylamide], at MEK1 activated ERK1, the IC50 (commonly the point on the concentration scale where inhibition reaches its midpoint) was in the range of 101 to 500 nM. Further, in assay [1], the EC50 is less than 100 nM. Also, the GI50 in assay [2] and in assay [3] was less than 100 nM each time.

In the case of `C=CC(=O)Nc1ccccc1Nc1nc(Nc2cc(C(=O)NC)c(F)cc2C)ncc1C(F)(F)F` [Compound I-80, 5-((4-((2-Acrylamidophenyl)amino)-5-(trifluoromethyl)pyrimidin-2-yl)amino)-2-fluoro-N,4-dimethylbenzamide], the half-inhibitory concentration (IC50) at MEK1 activated ERK1 is 101 to 500 nM. In assay [1], the EC50 fell in the range of 101 to 500 nM. For the same compound, the figures for the 50% growth inhibitory concentration (GI50) in assay [2] and in assay [3] were less than 100 nM and 101 to 500 nM, respectively.

For `C=CC(=O)Nc1ccccc1Nc1nc(Nc2cc(C(=O)NCCO)c(F)cc2C)ncc1Cl` [Compound I-232, 5-((4-((2-acrylamidophenyl)amino)-5-chloropyrimidin-2-yl)amino)-2-fluoro-N-(2-hydroxyethyl)-4-methylbenzamide], at MEK1 activated ERK1, the IC50 fell in the range of 101 to 500 nM. For the same compound, in assay [1], the EC50 was in the range of 101 to 500 nM. The values for the GI50 in assay [2] and in assay [3] were less than 100 nM and 101 to 500 nM, respectively.

As to `CCC(=O)Nc1ccccc1Nc1nc(N[C@H]2CCCN(C(C)=O)C2)ncc1C(F)(F)F` [Compound I-317, (S)—N-(2-((2-((1-acetylpiperidin-3-yl)amino)-5-(trifluoromethyl)pyrimidin-4-yl)amino)phenyl)propionamide], the EC50 in assay [1] is greater than 1000 nM. Further, the GI50 in assay [2] and in assay [3] was less than 100 nM each time.

Turning to `C=CC(=O)Nc1cc(C)ccc1Nc1nc(N[C@H]2CCCN(C(=O)CN)C2)ncc1C(F)(F)F` [Compound I-42, (S)—N-(2-((2-((1-(2-Aminoacetyl)piperidin-3-yl)amino)-5-(trifluoromethyl)pyrimidin-4-yl)amino)-5-methylphenyl)acrylamide], the EC50 in assay [1] fell in the range of 101 to 500 nM. Further, the concentration for 50% growth inhibition (GI50) in assay [2] and in assay [3] was greater than 1000 nM throughout.

As to `C=CC(=O)Nc1cc(C)ccc1Nc1nc(Nc2cc(C(=O)NC)c(F)cc2C)ncc1Cl` [Compound I-233, 5-((4-((2-acrylamido-4-methylphenyl)amino)-5-chloropyrimidin-2-yl)amino)-2-fluoro-N,4-dimethylbenzamide], the IC50 at MEK1 activated ERK1 lay within 101 to 500 nM. In assay [1], the EC50 lay in the range of 101 to 500 nM. The GI50 in assay [2] and in assay [3] was 101 to 500 nM each time.

As to `O=C(CCCl)Nc1ccccc1Nc1nc(N[C@H]2CCCN(C(=O)CO)C2)ncc1C(F)(F)F` [Compound I-22, (S)-3-Chloro-N-(2-((2-((1-(2-hydroxyacetyl)piperidin-3-yl)amino)-5-(trifluoromethyl)pyrimidin-4-yl)amino)phenyl)propanamide], the half-maximal inhibitory concentration (IC50) at MEK1 activated ERK1 was 101 to 500 nM. Moreover, the EC50 in assay [1] is greater than 1000 nM. Also, the GI50 (as a rule, the concentration giving 50% growth inhibition) was in the range of 501 to 999 nM in assay [2] and 101 to 500 nM in assay [3].

As to `C=C(C)S(=O)(=O)Nc1cc(C)ccc1Nc1nc(N[C@H]2CCCN(C(=O)CO)C2)ncc1C(F)(F)F` [Compound I-47, (S)—N-(2-((2-((1-(2-Hydroxyacetyl)piperidin-3-yl)amino)-5-(trifluoromethyl)pyrimidin-4-yl)amino)-5-methylphenyl)prop-1-ene-2-sulfonamide], in assay [1], the EC50 is 101 to 500 nM. Also, the GI50 in assay [2] was 101 to 500 nM; in assay [3], less than 100 nM.

As to `C=CC(=O)Nc1ccccc1Nc1nc(Nc2cc(C(=O)NC)c(F)cc2C)ncc1Cl` [Compound I-231, 5-((4-((2-acrylamidophenyl)amino)-5-chloropyrimidin-2-yl)amino)-2-fluoro-N,4-dimethylbenzamide], the IC50 on MEK1 activated ERK1 fell in the range of 101 to 500 nM. The EC50 in assay [1] was 101 to 500 nM. For the same compound, the GI50 in assay [2] and in assay [3] was less than 100 nM each time.

With `CCC(=O)Nc1ccccc1Nc1nc(N[C@H]2CCCN(C(=O)CO)C2)ncc1C(F)(F)F` [Compound I-318, (S)—N-(2-((2-((1-(2-hydroxyacetyl)piperidin-3-yl)amino)-5-(trifluoromethyl)pyrimidin-4-yl)amino)phenyl)propionamide], the EC50 in assay [1] was 501 to 999 nM. Besides, the GI50 in assay [2] is 101 to 500 nM; in assay [3] it was less than 100 nM.

Regarding `C=CC(=O)Nc1ccccc1Nc1nc(N[C@H]2CCCN(C(=O)[C@@H](C)O)C2)ncc1Cl` [Compound I-134, N-(2-((5-chloro-2-(((S)-1-((R)-2-hydroxypropanoyl)piperidin-3-yl)amino)pyrimidin-4-yl)amino)phenyl)acrylamide], the EC50 in assay [1] lay within 101 to 500 nM. The concentration for 50% growth inhibition (GI50) in assay [2] and in assay [3] was less than 100 nM throughout.

With `C=CC(=O)Nc1ccc(C)cc1Nc1nc(N[C@H]2CCCN(C(=O)CO)C2)ncc1C(F)(F)F` [Compound I-37, (S)—N-(2-((2-((1-(2-hydroxyacetyl)piperidin-3-yl)amino)-5-(trifluoromethyl)pyrimidin-4-yl)amino)-4-methylphenyl)acrylamide], in assay [1], the EC50 was less than 100 nM. Moreover, the GI50 in assay [2] and in assay [3] was less than 100 nM in each case.

Turning to `C=CC(=O)Nc1ccccc1Nc1nc(N[C@H]2CCCN(C(=O)CC)C2)ncc1Cl` [Compound I-131, (S)—N-(2-((5-chloro-2-((1-propionylpiperidin-3-yl)amino)pyrimidin-4-yl)amino)phenyl)acrylamide], the EC50 in assay [1] was less than 100 nM. The 50% growth inhibitory concentration (GI50) in assay [2] and in assay [3] was less than 100 nM each time.

With `CC(C)S(=O)(=O)c1ccccc1Nc1nc(N[C@H]2CCCN(C(=O)CO)C2)ncc1C(F)(F)F` [Compound I-310, (S)-2-hydroxy-1-(3-((4-((2-(isopropylsulfonyl)phenyl)amino)-5-(trifluoromethyl)pyrimidin-2-yl)amino)piperidin-1-yl)ethanone], in assay [1], the EC50 was in the range of 501 to 999 nM. Besides, the GI50 in assay [2] and in assay [3] was less than 100 nM throughout.

Take `C=C(C)S(=O)(=O)Nc1ccccc1Nc1nc(N[C@H]2CCCN(C(=O)CO)C2)ncc1C(F)(F)F` [Compound I-46, (S)—N-(2-((2-((1-(2-Hydroxyacetyl)piperidin-3-yl)amino)-5-(trifluoromethyl)pyrimidin-4-yl)amino)phenyl)prop-1-ene-2-sulfonamide]: the EC50 in assay [1] is 501 to 999 nM. Further, the GI50 in assay [2] and in assay [3] was 501 to 999 nM throughout.

For the compound `C=CC(=O)Nc1ccccc1Nc1nc(Nc2cc(C(=O)NOC)ccc2C)ncc1Cl` [Compound I-191, 3-((4-((2-acrylamidophenyl)amino)-5-chloropyrimidin-2-yl)amino)-N-methoxy-4-methylbenzamide], the EC50 in assay [1] was in the range of 101 to 500 nM. Besides, the GI50 in assay [2] and in assay [3] was less than 100 nM in each case.

As to `CN(C)CCC(=O)Nc1ccccc1Nc1nc(N[C@H]2CCCN(C(=O)CO)C2)ncc1C(F)(F)F` [Compound I-276, (S)-3-(dimethylamino)-N-(2-((2-((1-(2-hydroxyacetyl)piperidin-3-yl)amino)-5-(trifluoromethyl)pyrimidin-4-yl)amino)phenyl)propanamide], the EC50 in assay [1] was greater than 1000 nM. Moreover, the GI50 in assay [2] was 101 to 500 nM; in assay [3], greater than 1000 nM.

With `C=CC(=O)Nc1cc(C)ccc1Nc1nc(Nc2cc(C(N)=O)ccc2C)ncc1Cl` [Compound I-229, 3-((4-((2-acrylamido-4-methylphenyl)amino)-5-chloropyrimidin-2-yl)amino)-4-methylbenzamide], the EC50 in assay [1] was in the range of 101 to 500 nM. The concentration for 50% growth inhibition (GI50) in assay [2] and in assay [3] was less than 100 nM in each case.
